The record followed here is PubChem BioAssay AID270 (DTP/NCI, 2004).

Structures are written as SMILES. “And” between values parts separate entries of the source, which are not always exact repeats. Identical values can stand only once. Results filed as inconclusive are left out.

In the assay the test system is BDF1 mice, s.c. Lewis lung carcinoma, T/C %. As to the kind of experiment: NCI In Vivo Anticancer Drug Screen. Data for tumor model Lewis Lung Carcinoma (subcutaneous) in B6D2F1 (BDF1) mice. The gist of the method: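 First, mice carry a transplantable tumor. Next, groups receive either compound or vehicle. Finally, survival or tumor dimensions in the dosed animals are divided by the corresponding control figure.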

The mark [1] stands for this setting: endpoint: median survival time, dose: 6.25 mg/kg/injection, schedule: Q01DX009 (ip), vehicle: Klucel (hydroxypropylcellulose) (HPC), higher = longer survival.

As to `CC[C@]1(O)C[C@H]2CN(CCc3c([nH]c4ccccc34)[C@@](C(=O)OC)(c3cc4c(cc3OC)N(C=O)[C@H]3[C@@](O)(C(=O)OC)[C@H](OC(C)=O)[C@]5(CC)C=CCN6CC[C@]43[C@@H]65)C2)C1`, the T/C was 101 % of control (endpoint: mean survival time, dose: 0.5 mg/kg/injection, schedule: Q08DX002 (ip), vehicle: saline, higher = longer survival); 104 % of control (endpoint: mean survival time, dose: 1.0 mg/kg/injection, schedule: Q08DX002 (ip), vehicle: saline, higher = longer survival); 106 % of control (endpoint: mean survival time, dose: 1.5 mg/kg/injection, schedule: Q08DX002 (ip), vehicle: saline, higher = longer survival); 81 % of control (endpoint: mean tumor weight, dose: 0.05 mg/kg/injection, schedule: Q01DX011 (ip), vehicle: saline, higher = larger tumour); 83 % of control (endpoint: mean tumor weight, dose: 0.1 mg/kg/injection, schedule: Q01DX011 (ip), vehicle: saline, higher = larger tumour); 87 % of control and 101 % of control (endpoint: mean tumor weight, dose: 0.15 mg/kg/injection, schedule: Q01DX011 (ip), vehicle: saline, higher = larger tumour). The T/C is 88 % of control (endpoint: mean tumor weight, dose: 0.22 mg/kg/injection, schedule: Q01DX011 (ip), vehicle: saline, higher = larger tumour); 59 % of control (endpoint: mean tumor weight, dose: 0.5 mg/kg/injection, schedule: Q01DX011 (ip), vehicle: saline, higher = larger tumour); 59 % of control (endpoint: mean tumor weight, dose: 62.5 micrograms/kg/injection, schedule: Q01DX011 (ip), vehicle: saline, higher = larger tumour); 80 % of control (endpoint: mean tumor weight, dose: 125.0 micrograms/kg/injection, schedule: Q01DX011 (ip), vehicle: saline, higher = larger tumour); 59 % of control (endpoint: mean tumor weight, dose: 250.0 micrograms/kg/injection, schedule: Q01DX011 (ip), vehicle: saline, higher = larger tumour); 116 % of control (endpoint: median survival time, dose: 0.12 mg/kg/injection, schedule: Q01DX009 (ip), vehicle: saline, higher = longer survival). For the same molecule, the T/C is 104 % of control (endpoint: median survival time, dose: 0.12 mg/kg/injection, schedule: Q04DX003 (ip), vehicle: saline, higher = longer survival); 100 % of control (endpoint: median survival time, dose: 0.13 mg/kg/injection, schedule: Q01DX009 (ip), vehicle: saline, higher = longer survival); 108 % of control (endpoint: median survival time, dose: 0.25 mg/kg/injection, schedule: Q01DX009 (ip), vehicle: saline, higher = longer survival); 108 % of control (endpoint: median survival time, dose: 0.25 mg/kg/injection, schedule: Q04DX003 (ip), vehicle: saline, higher = longer survival); 108 % of control (endpoint: median survival time, dose: 0.5 mg/kg/injection, schedule: Q01DX009 (ip), vehicle: saline, higher = longer survival); 88 % of control (endpoint: median survival time, dose: 0.5 mg/kg/injection, schedule: Q04DX003 (ip), vehicle: saline, higher = longer survival). The T/C reads like this: (endpoint: median survival time, dose: 0.5 mg/kg/injection, schedule: Q08DX002 (ip), vehicle: saline, higher = longer survival) 104 % of control; (endpoint: median survival time, dose: 1.0 mg/kg/injection, schedule: Q04DX003 (ip), vehicle: saline, higher = longer survival) 93 % of control; (endpoint: median survival time, dose: 1.0 mg/kg/injection, schedule: Q08DX002 (ip), vehicle: saline, higher = longer survival) 104 % of control; (endpoint: median survival time, dose: 1.5 mg/kg/injection, schedule: Q08DX002 (ip), vehicle: saline, higher = longer survival) 108 % of control; (endpoint: median survival time, dose: 2.0 mg/kg/injection, schedule: Q04DX003 (ip), vehicle: saline, higher = longer survival) 53 % of control; (endpoint: median survival time, dose: 125.0 micrograms/kg/injection, schedule: Q01DX009 (ip), vehicle: saline, higher = longer survival) 88 % of control and 118 % of control. Further, the T/C was 93 % of control (endpoint: median survival time, dose: 250.0 micrograms/kg/injection, schedule: Q01DX009 (ip), vehicle: saline, higher = longer survival); 97 % of control (endpoint: median survival time, dose: 500.0 micrograms/kg/injection, schedule: Q01DX009 (ip), vehicle: saline, higher = longer survival); 102 % of control (endpoint: median tumor weight (est.), dose: 0.12 mg/kg/injection, schedule: Q01DX011 (ip), vehicle: saline, higher = larger tumour); 46 % of control (endpoint: median tumor weight (est.), dose: 0.18 mg/kg/injection, schedule: Q01DX011 (ip), vehicle: saline, higher = larger tumour); 92 % of control (endpoint: median tumor weight (est.), dose: 125.0 micrograms/kg/injection, schedule: Q01DX009 (ip), vehicle: saline, higher = larger tumour); 93 % of control (endpoint: median tumor weight (est.), dose: 250.0 micrograms/kg/injection, schedule: Q01DX009 (ip), vehicle: saline, higher = larger tumour). Also, the T/C (endpoint: median tumor weight (est.), dose: 500.0 micrograms/kg/injection, schedule: Q01DX009 (ip), vehicle: saline, higher = larger tumour) was 43 % of control.
As to `Cc1ccc(NC(=O)N(CCCl)N=O)cc1C`, the T/C was 112 % of control (endpoint: median survival time, dose: 3.12 mg/kg/injection, schedule: Q01DX009 (ip), vehicle: Klucel (hydroxypropylcellulose) (HPC), higher = longer survival) and 87 % of control under setting [1].
Turning to `CC[C@H]1CN2CCc3cc(OC)c(OC)cc3[C@@H]2C[C@@H]1C[C@H]1NCCc2cc(O)c(OC)cc21`, the T/C was 94 % of control (endpoint: mean tumor weight, dose: 1.25 mg/kg/injection, schedule: Q01DX011 (ip), vehicle: saline, higher = larger tumour); 55 % of control (endpoint: mean tumor weight, dose: 2.5 mg/kg/injection, schedule: Q01DX011 (ip), vehicle: saline, higher = larger tumour); 37 % of control (endpoint: mean tumor weight, dose: 5.0 mg/kg/injection, schedule: Q01DX011 (ip), vehicle: saline, higher = larger tumour).
On to `CN1CC(=O)N=C1N`, for which the T/C by setting is: (endpoint: mean tumor weight, dose: 31.3 mg/kg/injection, schedule: Q01DX011 (ip), vehicle: saline, higher = larger tumour) 116 % of control; (endpoint: mean tumor weight, dose: 62.5 mg/kg/injection, schedule: Q01DX011 (ip), vehicle: saline, higher = larger tumour) 150 % of control; (endpoint: mean tumor weight, dose: 125.0 mg/kg/injection, schedule: Q01DX011 (ip), vehicle: saline, higher = larger tumour) 119 % of control; (endpoint: mean tumor weight, dose: 250.0 mg/kg/injection, schedule: Q01DX011 (ip), vehicle: saline, higher = larger tumour) 105 % of control.
As to `O=c1[nH]c(=O)n(C2CC(O)C(CO)O2)cc1F` (centres undefined), the T/C (endpoint: mean tumor weight, dose: 10.0 mg/kg/injection, schedule: Q01DX011 (ip), vehicle: saline, higher = larger tumour) was 82 % of control; the T/C (endpoint: mean tumor weight, dose: 20.0 mg/kg/injection, schedule: Q01DX011 (ip), vehicle: saline, higher = larger tumour) is 57 % of control; the T/C (endpoint: mean tumor weight, dose: 26.0 mg/kg/injection, schedule: Q01DX011 (ip), vehicle: saline, higher = larger tumour) is 45 % of control; the T/C (endpoint: mean tumor weight, dose: 40.0 mg/kg/injection, schedule: Q01DX011 (ip), vehicle: other, higher = larger tumour) was 17 % of control and 23 % of control; the T/C (endpoint: mean tumor weight, dose: 40.0 mg/kg/injection, schedule: Q01DX011 (ip), vehicle: saline, higher = larger tumour) was 25 % of control and 27 % of control; the T/C (endpoint: mean tumor weight, dose: 60.0 mg/kg/injection, schedule: Q01DX011 (ip), vehicle: saline, higher = larger tumour) was 17 % of control and 23 % of control. In addition, the T/C was 10 % of control (endpoint: mean tumor weight, dose: 80.0 mg/kg/injection, schedule: Q01DX011 (ip), vehicle: other, higher = larger tumour); 18 % of control (endpoint: mean tumor weight, dose: 80.0 mg/kg/injection, schedule: Q01DX011 (ip), vehicle: saline, higher = larger tumour); 1 % of control (endpoint: mean tumor weight, dose: 120.0 mg/kg/injection, schedule: Q01DX011 (ip), vehicle: saline, higher = larger tumour); 4 % of control (endpoint: mean tumor weight, dose: 160.0 mg/kg/injection, schedule: Q01DX011 (ip), vehicle: other, higher = larger tumour); 90 % of control and 110 % of control and 114 % of control (endpoint: median survival time, dose: 25.0 mg/kg/injection, schedule: Q01DX009 (ip), vehicle: saline, higher = longer survival); 116 % of control (endpoint: median survival time, dose: 36.0 mg/kg/injection, schedule: Q01DX011 (ip), vehicle: saline, higher = longer survival). Further, the T/C by setting is: (endpoint: median survival time, dose: 50.0 mg/kg/injection, schedule: Q01DX009 (ip), vehicle: saline with Tween-80, higher = longer survival) 116 % of control; (endpoint: median survival time, dose: 50.0 mg/kg/injection, schedule: Q01DX009 (ip), vehicle: saline, higher = longer survival) 92 % of control and 98 % of control; (endpoint: median survival time, dose: 80.0 mg/kg/injection, schedule: Q01DX011 (ip), vehicle: saline, higher = longer survival) 104 % of control; (endpoint: median survival time, dose: 100.0 mg/kg/injection, schedule: Q01DX009 (ip), vehicle: saline with Tween-80, higher = longer survival) 95 % of control; (endpoint: median survival time, dose: 119.0 mg/kg/injection, schedule: Q01DX011 (ip), vehicle: saline, higher = longer survival) 94 % of control; (endpoint: median tumor weight (est.), dose: 25.0 mg/kg/injection, schedule: Q01DX009 (ip), vehicle: saline with Tween-80, higher = larger tumour) 72 % of control. Besides, the T/C reads like this: (endpoint: median tumor weight (est.), dose: 50.0 mg/kg/injection, schedule: Q01DX009 (ip), vehicle: saline with Tween-80, higher = larger tumour) 66 % of control; (endpoint: median tumor weight (est.), dose: 100.0 mg/kg/injection, schedule: Q01DX009 (ip), vehicle: saline with Tween-80, higher = larger tumour) 32 % of control.
For the molecule `CC(=O)[O][Hg][c]1c(C)c(C)c(C)c(C)c1C`, the T/C reads like this: (endpoint: median survival time, dose: 0.62 mg/kg/injection, schedule: Q01DX009 (ip), vehicle: Klucel (hydroxypropylcellulose) (HPC), higher = longer survival) 93 % of control; (endpoint: median survival time, dose: 1.25 mg/kg/injection, schedule: Q01DX009 (ip), vehicle: Klucel (hydroxypropylcellulose) (HPC), higher = longer survival) 93 % of control; (endpoint: median survival time, dose: 2.5 mg/kg/injection, schedule: Q01DX009 (ip), vehicle: Klucel (hydroxypropylcellulose) (HPC), higher = longer survival) 100 % of control; (endpoint: median survival time, dose: 5.0 mg/kg/injection, schedule: Q01DX009 (ip), vehicle: Klucel (hydroxypropylcellulose) (HPC), higher = longer survival) 105 % of control; (endpoint: median survival time, dose: 6.0 mg/kg/injection, schedule: Q01DX009 (ip), vehicle: Klucel (hydroxypropylcellulose) (HPC), higher = longer survival) 92 % of control; under setting [1], 92 % of control.
Consider `CCCCCCCCCCCCSC(=N)N`, for which the T/C was 107 % of control (endpoint: median survival time, dose: 6.25 mg/kg/injection, schedule: Q01DX009 (ip), vehicle: saline with Tween-80, higher = longer survival); 106 % of control (endpoint: median survival time, dose: 12.5 mg/kg/injection, schedule: Q01DX009 (ip), vehicle: saline with Tween-80, higher = longer survival); 104 % of control (endpoint: median survival time, dose: 25.0 mg/kg/injection, schedule: Q01DX009 (ip), vehicle: saline with Tween-80, higher = longer survival).
